These are literature values, as cited in patent US20260140098A1, “METHOD FOR TREATING PLASMA SAMPLE CONTAINING (7aS,2'S)-2-OXO-CLOPIDOGREL AND METHOD FOR DETERMINING THE SAME” (CHENGDU SHIBEIKANG BIOMEDICAL TECHNOLOGY CO., LTD., priority 2021, published 2026).

One series deals with CYP1A2 (Homo sapiens, UniProt P05177). The following applies: by CYP1A2; cited from earlier work.
Another series addresses CYP2B6 (Homo sapiens, UniProt P20813). Particulars: by CYP2B6; cited from earlier work.
The next series addresses CYP2C19 (Homo sapiens, UniProt P33261). The following applies: by CYP2C19; cited from earlier work.

Sequence of CYP1A2 (P05177 whole entry): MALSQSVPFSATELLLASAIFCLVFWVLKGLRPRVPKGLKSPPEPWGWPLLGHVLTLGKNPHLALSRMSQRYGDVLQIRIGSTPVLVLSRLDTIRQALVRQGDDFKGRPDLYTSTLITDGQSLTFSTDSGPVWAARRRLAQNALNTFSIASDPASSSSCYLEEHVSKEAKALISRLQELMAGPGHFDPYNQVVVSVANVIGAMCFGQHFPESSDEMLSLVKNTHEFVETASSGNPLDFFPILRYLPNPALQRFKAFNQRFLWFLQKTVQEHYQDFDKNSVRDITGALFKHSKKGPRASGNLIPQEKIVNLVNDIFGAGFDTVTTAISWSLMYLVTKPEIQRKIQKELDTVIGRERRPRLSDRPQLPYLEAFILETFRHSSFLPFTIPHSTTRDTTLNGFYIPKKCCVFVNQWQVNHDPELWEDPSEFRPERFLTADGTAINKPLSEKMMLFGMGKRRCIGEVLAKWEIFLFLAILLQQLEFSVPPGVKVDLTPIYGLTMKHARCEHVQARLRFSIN
Sequence of CYP2C19 (P33261 whole entry): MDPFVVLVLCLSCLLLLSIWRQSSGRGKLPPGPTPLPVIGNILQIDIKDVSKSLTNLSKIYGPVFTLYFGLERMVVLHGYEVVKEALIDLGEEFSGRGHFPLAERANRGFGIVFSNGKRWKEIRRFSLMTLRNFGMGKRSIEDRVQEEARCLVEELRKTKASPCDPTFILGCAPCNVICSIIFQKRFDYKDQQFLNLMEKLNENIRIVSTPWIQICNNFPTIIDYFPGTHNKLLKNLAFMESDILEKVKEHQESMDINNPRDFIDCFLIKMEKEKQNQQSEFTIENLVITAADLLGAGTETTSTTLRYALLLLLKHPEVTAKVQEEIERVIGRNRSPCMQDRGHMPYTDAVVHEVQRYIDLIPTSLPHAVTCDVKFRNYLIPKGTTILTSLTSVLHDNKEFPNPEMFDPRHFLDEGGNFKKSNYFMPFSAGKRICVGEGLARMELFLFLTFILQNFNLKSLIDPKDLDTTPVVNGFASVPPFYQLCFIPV
Sequence of CYP2B6 (P20813 whole entry): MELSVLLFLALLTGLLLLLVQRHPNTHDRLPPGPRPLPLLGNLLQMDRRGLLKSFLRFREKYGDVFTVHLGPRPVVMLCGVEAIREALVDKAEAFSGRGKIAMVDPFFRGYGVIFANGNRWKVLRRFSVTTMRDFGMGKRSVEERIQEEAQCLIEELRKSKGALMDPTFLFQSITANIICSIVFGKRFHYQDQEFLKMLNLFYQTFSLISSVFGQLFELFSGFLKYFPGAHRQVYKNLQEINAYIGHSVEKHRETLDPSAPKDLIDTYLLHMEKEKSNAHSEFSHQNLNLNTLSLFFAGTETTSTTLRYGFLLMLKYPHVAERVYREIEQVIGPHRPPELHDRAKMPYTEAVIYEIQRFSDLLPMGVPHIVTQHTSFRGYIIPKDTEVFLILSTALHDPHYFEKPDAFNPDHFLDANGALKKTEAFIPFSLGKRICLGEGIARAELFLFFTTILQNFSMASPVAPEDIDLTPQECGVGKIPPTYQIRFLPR

On to `COC(=O)[C@H](c1ccccc1Cl)N1CCc2sccc2C1` [clopidogrel], for which the “Share of Phase I metabolism into inactive 2-oxo-clopidogrel” value on CYP1A2 is around 36%; at CYP2B6, around 19%; on CYP2C19 it was around 45%.
